Test results reported in ChEMBL document CHEMBL1201862, “PubChem BioAssay data set” (2004).
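Grown in 96-well plates, cells were treated for 48 hours with each compound at five concentrations. Insufficient inhibition: endpoint recorded as highest concentration tested. GI50: concentration for 50% inhibition of growth.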 Activity calls are given as the source filed them. Rule as the data show it: active = GI50 up to about 1.1 µM and inactive = higher.

Columns and labels:
Experiment in all cases: inhibition of tumour cell growth, NCI panel, 48 h
[1] = test system: HCC 2998
[2] = test system: PC-3
[3] = test system: LOX IMVI
[4] = test system: A549
[5] = test system: SF-268
[6] = test system: NCI/ADR-RES
[7] = test system: K562
[8] = test system: SK-OV-3
[9] = test system: RPMI-8226
[10] = test system: SW-620
[11] = test system: OVCAR-3
[12] = test system: HOP-62
[13] = test system: UO-31
[14] = test system: TK-10
[15] = test system: U-251
[16] = test system: MCF7
[17] = test system: COLO 205
[18] = test system: KM12
[19] = test system: SN12C
[20] = test system: NCI-H226

Measured: GI50

C=C1c2cc3c(cc2CC12Cc1cc4c(cc1C2=O)CCC4)CCC3 (stereo not given)
inactive: [1] > 100 µM | [2] > 100 µM | [3] > 100 µM | [4] > 100 µM | [5] > 100 µM | [6] > 100 µM | [7] > 100 µM | [8] > 100 µM | [9] > 100 µM | [10] > 100 µM | [11] > 100 µM | [12] > 100 µM | [13] > 100 µM | [14] > 100 µM | [15] > 100 µM | [16] > 100 µM

O=C(Oc1c(I)ccccc1=O)c1ccc([N+](=O)[O-])cc1
inactive: [1] 23.2 µM | [2] 27.4 µM | [3] 19.6 µM | [17] 14.7 µM | [4] 21.6 µM | [5] 15.5 µM | [6] 40.6 µM | [18] 18.9 µM | [7] 24.2 µM | [9] 23.2 µM | [10] 30.1 µM | [11] 13.6 µM | [12] 33.3 µM | [13] 17.3 µM | [19] 20.4 µM | [14] 30.8 µM | [15] 16.8 µM | [16] 17.2 µM

COCC1OC(Sc2ccccc2)C(O)C(OC)C1OC (stereo not given)
inactive: [1] > 100 µM | [2] > 100 µM | [3] > 100 µM | [20] > 100 µM | [17] > 100 µM | [4] > 100 µM | [5] > 100 µM | [6] > 100 µM | [18] > 100 µM | [7] > 100 µM | [8] > 100 µM | [10] > 100 µM | [11] > 100 µM | [12] > 100 µM | [13] > 100 µM | [19] > 100 µM | [14] > 100 µM | [15] > 100 µM | [16] > 100 µM

COc1ccc([N+](=O)[O-])c2c(NCCCN(C)C)c(C)c(C)nc12
inactive: [1] > 100 µM | [2] 83 µM | [3] > 100 µM | [17] 26.2 µM | [4] 99.3 µM | [5] > 100 µM | [6] > 100 µM | [18] > 100 µM | [7] 37.6 µM | [8] > 100 µM | [9] 31.8 µM | [10] 54 µM | [11] 96.6 µM | [12] 89.5 µM | [13] > 100 µM | [19] > 100 µM | [14] > 100 µM | [15] > 100 µM | [16] 49.9 µM

O=C1CCCCCCCCCCC1CCCCCBr (stereo not given)
inactive: [1] 18.5 µM | [2] 31.2 µM | [3] 19 µM | [20] 20.8 µM | [17] 19.4 µM | [4] 29.4 µM | [5] 30.8 µM | [6] 21.7 µM | [18] 23.1 µM | [7] 16.1 µM | [8] 57.9 µM | [10] 42.5 µM | [11] 17.4 µM | [12] 29.2 µM | [13] 26.1 µM | [19] 22.3 µM | [14] 44 µM | [15] 20 µM | [16] 37 µM

CCO[C@]12CCC[C@H]1[C@@H]1C(=O)c3ccccc3C(=O)C1=C(C)O2
inactive: [1] > 100 µM | [2] > 100 µM | [3] 20.8 µM | [17] > 100 µM | [4] > 100 µM | [5] 30.8 µM | [6] > 100 µM | [18] > 100 µM | [7] 32 µM | [8] > 100 µM | [9] 29.2 µM | [10] 37.2 µM | [11] 22 µM | [12] > 100 µM | [13] > 100 µM | [19] > 100 µM | [14] > 100 µM | [15] 36.3 µM | [16] 17 µM
